Laboratory results from patent publication US7148380B2, “Bio-energy muscle relaxants” (priority 2000, dated 2006).

Legend:
[1] = system: drug-induced asthma in guinea pig; experiment: Asthmatic latent period / drug-induced asthma in guinea pig (acetylcholine + histamine inhalation); assay type: in vivo
Protocol: Sensitive animals were chosen by aerosolized inhalation of asthma-inducing agents—a mixed solution of 2% acetylcholine with 0.1% histamine for 15 sec., inducing an asthmatic attack with severe difficulty in respiration and finally resulting in the animal body turned down. The time from beginning of the inhalation to animal turned down was recorded as an index named “turned down time” or asthmatic latent period. Those animals with turned down time less than 120 s. were selected for the study next day. […] Then the latent period was recorded for each of the animals.
(1) Screening animals: animal was put in a glass container, a mixed solution of 2% acetylcholine and 0.1% histamine was nebulized with a pressure of 400 mmHg and inhaled by the animals for 15 sec. Following the end of the inhalation, the time between beginning of the inhalation and the animal turned down due to bronchial spasm and dyspnea was recorded as asthmatic latent period. Those animals with a latent period beyond 120 s. were excluded, and those with a latent period less than 120 s were selected for study the next day.
(4) Measuring: Repeat the inhalation at 30 min, 4 h, and 24 h after administration of the drugs respectively. Asthmatic latent period was recorded, 6 minutes were taken as the maximum, and values beyond 6 min were counted as 6 min.
(5) Data analysis: Values were expressed as mean±sd, and paired for “t” and chi-square tests. Significance was considered to be established when p<0.05.

[2] = system: contraction of bronchial smooth muscle induced by histamine; experiment: By-pass-airflow pressure, bronchial smooth muscle contraction induced by histamine; assay type: in vivo, guinea pig
Protocol: The animals were divided as saline, BDM, and aminophylline groups. Each animal was anesthetized with pentobarbital (30 mg/kg, I.P.), the trachea was intubated and connected to respirator. Tidal volume and frequency of the respirator were adjusted to 6˜10 ml and 60˜70 breath/min. respectively.
A small hole on chest wall of the animal was made, resulting in pneumothorax to inhibit spontaneous respiration of the animal. A modified device was used for measuring by-pass-airflow pressure of the airway, reflecting alteration in airway resistance, therefore evaluating status of bronchial smooth muscle contraction induced by histamine. The by-pass-airflow pressures were measured before and at 10, 20, 30, 40, 50, and 60 min after administration of histamine (5˜10 μg, I.P.) as control values. […] Changes in by-pass-airflow pressure caused by histamine before and after saline, BDM, or aminophylline were compared.
A percentage of changes in the airflow pressures before and after administration of the histamine at different time points, defined as the change rate, was calculated according to formula 1 below: Change rate (%)=(PA−PB)/PB×100% (1)
where PA is the airflow pressure after histamine, PB is the pressure before histamine. Values were expressed as mean±SD, paired or group “t” test was used upon the requirement for the statistical analysis. The results were considered significant when p<0.05.

[3] = 10 ml/kg I.P. (BDM 0.2M, aminophylline 1.25%), mean±sd
[4] = after drug 10 ml/kg I.P., 10 min after histamine
[5] = after drug 10 ml/kg I.P., 20 min after histamine
[6] = after drug 10 ml/kg I.P., 30 min after histamine
[7] = after drug 10 ml/kg I.P., 40 min after histamine
[8] = after drug 10 ml/kg I.P., 50 min after histamine
[9] = after drug 10 ml/kg I.P., 60 min after histamine
[10] = before drug administration, 10 min after histamine
[11] = before drug administration, 20 min after histamine
[12] = before drug administration, 30 min after histamine
[13] = before drug administration, 40 min after histamine
[14] = before drug administration, 50 min after histamine
[15] = before drug administration, 60 min after histamine

Cn1c(=O)c2[nH]cnc2n(C)c1=O [Aminophylline, aminophylline, reference compound]
Asthamatic Latent Period, 30 minutes after administration ([1]; 10 ml/kg I.P. (BDM 0.2M, aminophylline 1.25%), maximum 6 min, mean±sd): 298.2 ± 138.2 s
Asthamatic Latent Period, 4 hours after administration [1, 3]: 216.6 ± 112.5 s
Asthamatic Latent Period, 24 hours after administration [1, 3]: 96 ± 26.9 s
Incidence of asthmatic spasm ([1]; 30 min after administration, down from 100%, not significant): 40%
Asthamatic Latent Period, before administration ([1]; baseline before drug, 10 ml/kg I.P. (BDM 0.2M, aminophylline 1.25%), mean±sd): 70.6 ± 27.7 s
Effect on the latent period ([1]; thirty minutes and 4 h after administration, p<0.05): significantly extended
by-pass-airflow pressure, A, B. Hist ([2]; after drug 10 ml/kg I.P. (BDM 0.2M, aminophylline 1.25%), before histamine): 4.24 ± 1.18 Kpa
by-pass-airflow pressure, A, Hist 10 min. [2, 4]: 4.36 ± 1.10 Kpa
changing rate of by-pass-airflow pressure, A, Hist 10 min. [2, 4]: −7.68%
by-pass-airflow pressure, A, Hist 20 min. [2, 5]: 4.18 ± 0.86 Kpa
changing rate of by-pass-airflow pressure, A, Hist 20 min. [2, 5]: −10.62%
by-pass-airflow pressure, A, Hist 30 min. [2, 6]: 4.20 ± 0.92 Kpa
changing rate of by-pass-airflow pressure, A, Hist 30 min. [2, 6]: −10.40%
by-pass-airflow pressure, A, Hist 40 min. [2, 7]: 4.15 ± 0.88 Kpa
changing rate of by-pass-airflow pressure, A, Hist 40 min. [2, 7]: −11.38%
by-pass-airflow pressure, A, Hist 50 min. [2, 8]: 4.10 ± 0.92 Kpa
changing rate of by-pass-airflow pressure, A, Hist 50 min. [2, 8]: −12.73%
by-pass-airflow pressure, A, Hist 60 min. [2, 9]: 4.02 ± 0.92 Kpa
changing rate of by-pass-airflow pressure, A, Hist 60 min. [2, 9]: −14.25%
histamine-induced increase in the airflow pressure ([2]; at 10, 20, 30, 40, 50, and 60 min after administration, p<0.01 or p<0.05): significantly reduce
by-pass-airflow pressure, B, Hist 10 min. [2, 10]: 4.51 ± 0.65 Kpa
changing rate of by-pass-airflow pressure, B, Hist 10 min. [2, 10]: 8.37%
by-pass-airflow pressure, B, Hist 20 min. [2, 11]: 4.34 ± 0.73 Kpa
changing rate of by-pass-airflow pressure, B, Hist 20 min. [2, 11]: 3.93%
by-pass-airflow pressure, B, Hist 30 min. [2, 12]: 4.40 ± 0.79 Kpa
changing rate of by-pass-airflow pressure, B, Hist 30 min. [2, 12]: 5.31%
by-pass-airflow pressure, B, Hist 40 min. [2, 13]: 4.42 ± 0.80 Kpa
changing rate of by-pass-airflow pressure, B, Hist 40 min. [2, 13]: 5.80%
by-pass-airflow pressure, B, Hist 50 min. [2, 14]: 4.42 ± 0.86 Kpa
changing rate of by-pass-airflow pressure, B, Hist 50 min. [2, 14]: 5.63%
by-pass-airflow pressure, B, Hist 60 min. [2, 15]: 4.46 ± 0.87 Kpa
changing rate of by-pass-airflow pressure, B, Hist 60 min. [2, 15]: 6.54%
by-pass-airflow pressure, B, B. Hist ([2]; before drug administration, before histamine): 4.18 ± 0.72 Kpa
changing rate of by-pass-airflow pressure, D, Hist 10 min. ([2]; difference A minus B, 10 min after histamine): −16.05%
changing rate of by-pass-airflow pressure, D, Hist 20 min. ([2]; difference A minus B, 20 min after histamine): −14.55%
changing rate of by-pass-airflow pressure, D, Hist 30 min. ([2]; difference A minus B, 30 min after histamine): −15.71%
changing rate of by-pass-airflow pressure, D, Hist 40 min. ([2]; difference A minus B, 40 min after histamine): −17.19%
changing rate of by-pass-airflow pressure, D, Hist 50 min. ([2]; difference A minus B, 50 min after histamine): −18.36%
changing rate of by-pass-airflow pressure, D, Hist 60 min. ([2]; difference A minus B, 60 min after histamine): −20.79%
